≈ marks a conversion by molar mass, not a printed value.
Assays:
[1] = test system: in vitro grown Mycobacteria (M. tuberculosis); assay: QUM: Quantification of in vitro grown Mycobacteria (in vitro growth fluorescence assay); type: cell-based; details: Mycobacterium tuberculosis; MIC, 80% bacterial growth inhibition; in vitro growth; read-out: QUM
How it was run: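 Mycobacterium tuberculosis grown in vitro was quantified by fluorescence across compound dose responses. MIC is defined as the minimum concentration producing 80% growth inhibition.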

[2] = test system: M. tuberculosis inside the host macrophage; assay: QIM: Quantification of Intracellular Mycobacteria (intracellular growth assay, phenotypic cell-based); details: Mycobacterium tuberculosis; MIC, 80% bacterial growth inhibition; intracellular growth; read-out: QIM
How it was run: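 Dose-response testing of intracellular mycobacterial replication in infected macrophages, a cell-based screening format; MIC is defined as the lowest concentration achieving 80% inhibition of bacterial growth.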

Row | SMILES | MIC [1] | MIC [2]
1 | CCc1nc2cc(Cl)ccn2c1C(=O)NCc1ccn(-c2ccc(C(F)(F)F)cc2)n1 [Compound 234, 7-Chloro-2-ethyl-N-((1-(4-(trifluoromethyl)phenyl)-1H-pyrazol-3-yl)methyl)imidazo[1,2-a]pyridine-3-carboxamide] | 1 to 20 µM (≈ 0.448 to 8.96 µg/mL) | 1 to 20 µM (≈ 0.448 to 8.96 µg/mL)
2 | CCc1nc2ccc(Cl)cn2c1C(=O)NCc1ccc(N2CCC(Oc3ccc(F)cc3)CC2)cc1 [Compound 166, 6-Chloro-2-ethyl-N-(4-(4-(4-fluorophenoxy)piperidin-1-yl)benzyl)imidazo[1,2-a]pyridine-3-carboxamide] | < 1 µM | < 1 µM
3 | CCc1nc2ccc(C)cn2c1C(=O)NCc1ccc(OC(F)(F)F)cc1 [Compound 65, 2-Ethyl-6-methyl-N-(4-(trifluoromethoxy)benzyl)imidazo[1,2-a]pyridine-3-carboxamide] | < 1 µM | < 1 µM
4 | Cc1nc2ccccn2c1C(=O)Nc1ccc(OCc2ccccc2)cc1 [Compound 7, N-(4-(Benzyloxy)phenyl)-2-methylimidazo[1,2-a]pyridine-3-carboxamide] | > 20 µM | > 20 µM
5 | Cc1nc2ccc(Cl)cn2c1C(=O)NCc1ccccc1 [Compound 29, N-Benzyl-6-chloro-2-methylimidazo[1,2-a]pyridine-3-carboxamide] | 1 to 20 µM (≈ 0.3 to 6 µg/mL) | 1 to 20 µM (≈ 0.3 to 6 µg/mL)
6 | CCc1nc2ccc(Cl)cn2c1C(=O)NCc1ccc(-c2ccccc2C)cc1 [Compound 84, 6-Chloro-2-ethyl-N-((2′-methylbiphenyl-4-yl)methyl)imidazo[1,2-a]pyridine-3-carboxamide] | < 1 µM | < 1 µM
7 | CCc1nc2cnccn2c1C(=O)NCc1ccc(-c2ccc(Cl)cc2)cc1 [Compound 141, N-((4′-Chlorobiphenyl-4-yl)methyl)-2-ethylimidazo[1,2-a]pyrazine-3-carboxamide] | < 1 µM | < 1 µM
8 | CC(C)(C)c1ccc(CNC(=O)c2c(C(F)(F)F)nc3ccc(Cl)cn23)cc1 [Compound 100, N-(4-tert-Butylbenzyl)-6-chloro-2-(trifluoromethyl)imidazo[1,2-a]pyridine-3-carboxamide] | < 1 µM | < 1 µM
9 | CCc1nc2ccc(Cl)cn2c1C(=O)NCc1ccc(N2CCOCC2)cc1 [Compound 74] | < 1 µM | < 1 µM
10 | Cc1nc2ccccn2c1C(=O)NCc1ccc(F)cc1 [Compound 9, N-(4-Fluorobenzyl)-2-methylimidazo[1,2-a]pyridine-3-carboxamide] | > 20 µM | > 20 µM
11 | CCc1nc2cc(Cl)ccn2c1C(=O)NCc1ccc(N2CCN(C)CC2)cc1 [Compound 109, 7-Chloro-2-ethyl-N-(4-(4-methylpiperazin-1-yl)benzyl)imidazo[1,2-a]pyridine-3-carboxamide] | 1 to 20 µM (≈ 0.412 to 8.24 µg/mL) | 1 to 20 µM (≈ 0.412 to 8.24 µg/mL)
12 | COc1ccc(CCNC(=O)c2c(C)nc3ccccn23)cc1 [Compound 22, N-(4-Methoxyphenethyl)-2-methylimidazo[1,2-a]pyridine-3-carboxamide] | > 20 µM | > 20 µM
13 | Cc1nc2ccccn2c1C(=O)NCCc1ccccc1 [Compound 21, 2-Methyl-N-phenethylimidazo[1,2-a]pyridine-3-carboxamide] | > 20 µM | > 20 µM
14 | CCc1nc2ccc(Cl)cn2c1C(=O)NCc1ccc(N2CCC(C)CC2)cc1 [Compound 214, 6-Chloro-2-ethyl-N-(4-(4-methylpiperidin-1-yl)benzyl)imidazo[1,2-a]pyridine-3-carboxamide] | < 1 µM | < 1 µM
15 | Cc1nc2cc(Cl)ccn2c1C(=O)NCc1ccccc1 [Compound 28, N-Benzyl-7-chloro-2-methylimidazo[1,2-a]pyridine-3-carboxamide] | > 20 µM | 1 to 20 µM (≈ 0.3 to 6 µg/mL)
16 | CCc1nc2ccc(Cl)cn2c1C(=O)NCc1ccc(-c2ccc(C#N)cc2C)cc1 [Compound 131, 6-Chloro-N-((4′-cyano-2′-methylbiphenyl-4-yl)methyl)-2-ethylimidazo[1,2-a]pyridine-3-carboxamide] | < 1 µM | < 1 µM
17 | CCc1nc2ccc(C)cn2c1C(=O)NCc1ccc(-c2ccccc2)cc1 [Compound 62, N-(Biphenyl-4-ylmethyl)-2-ethyl-6-methylimidazo[1,2-a]pyridine-3-carboxamide] | < 1 µM | < 1 µM
18 | CCc1nc2cc(Cl)c(Cl)cn2c1C(=O)NCc1ccc(N2CCN(c3ccc(F)cc3)CC2)cc1 [Compound 180, 6,7-Dichloro-2-ethyl-N-(4-(4-(4-fluorophenyl)piperazin-1-yl)benzyl)imidazo[1,2-a]pyridine-3-carboxamide] | < 1 µM | < 1 µM

Row | SMILES | MIC [1] | MIC [2]
19 | CCOC(=O)c1c(C)nc2cc(-c3ccccc3)ccn12 [Compound 2, Ethyl 2-methyl-7-phenylimidazo[1,2-a]pyridine-3-carboxylate] | > 20 µM | > 20 µM
20 | CCc1nc2cc(Cl)ccn2c1C(=O)NCc1ccc(-c2ccccc2Cl)cc1 [Compound 94, 7-Chloro-N-((2′-chlorobiphenyl-4-yl)methyl)-2-ethylimidazo[1,2-a]pyridine-3-carboxamide] | < 1 µM | < 1 µM
21 | CCCc1nc2ccccn2c1C(=O)NCc1ccc(-c2ccccc2)cc1 [Compound 49, N-(Biphenyl-4-ylmethyl)-2-propylimidazo[1,2-a]pyridine-3-carboxamide] | < 1 µM | < 1 µM
22 | CCc1nc2cc(Cl)ccn2c1C(=O)NCc1ccc(-c2ccc(OC)cc2)cc1 [Compound 118, 7-Chloro-2-ethyl-N-((4′-methoxybiphenyl-4-yl)methyl)imidazo[1,2-a]pyridine-3-carboxamide] | < 1 µM | < 1 µM
23 | CCc1nc2cc(Cl)ccn2c1C(=O)NCc1ccc(N2CCC(Oc3ccc(OC(F)(F)F)cc3)CC2)cc1 [Compound 140, 7-Chloro-2-ethyl-N-(4-(4-(4-(trifluoromethoxy)phenoxy)piperidin-1-yl)benzyl)imidazo-[1,2-a]pyridine-3-carboxamide] | < 1 µM | < 1 µM
24 | CCc1nc2ccc(Cl)cn2c1C(=O)NCc1ccc2oc(-c3ccc(OC(F)(F)F)cc3)nc2c1 [Compound 207, 6-Chloro-2-ethyl-N-((2-(4-(trifluoromethoxy)phenyl)benzo[d]oxazol-5-yl)methyl)imidazo[1,2-a]pyridine-3-carboxamide] | < 1 µM | < 1 µM
25 | CCc1nc2cc(Cl)ccn2c1C(=O)NCc1ccc(N2CCCCC2)cc1 [Compound 90, 7-Chloro-2-ethyl-N-(4-(piperidin-1-yl)benzyl)imidazo[1,2-a]pyridine-3-carboxamide] | < 1 µM | < 1 µM
26 | CCc1nc2cc(Cl)ccn2c1C(=O)NCc1ccc(-c2ccc(OC(F)(F)F)cc2)cc1 [Compound 119, 7-Chloro-2-ethyl-N-((4′-(trifluoromethoxy)biphenyl-4-yl)methyl)imidazo[1,2-a]pyridine-3-carboxamide] | < 1 µM | < 1 µM
27 | CCc1nc2ccc(Cl)cn2c1C(=O)NCc1ccc2ccccc2c1 [Compound 80, 6-Chloro-2-ethyl-N-(naphthalen-2-ylmethyl)imidazo[1,2-a]pyridine-3-carboxamide] | < 1 µM | < 1 µM
28 | CCc1nc2ccc(Cl)cn2c1C(=O)NCc1ccc(-c2ccc(Cl)cc2C(F)(F)F)cc1 [Compound 129, 6-Chloro-N-((4′-chloro-2′-(trifluoromethyl)biphenyl-4-yl)methyl)-2-ethylimidazo[1,2-a]pyridine-3-carboxamide] | < 1 µM | < 1 µM
29 | CCc1nc2cc(Cl)ccn2c1C(=O)NCc1ccc(-c2ccc(Cl)cc2)cc1 [Compound 95, 7-Chloro-N-((4′-chlorobiphenyl-4-yl)methyl)-2-ethylimidazo[1,2-a]pyridine-3-carboxamide] | < 1 µM | < 1 µM
30 | CCc1nc2ccc(Cl)cn2c1C(=O)NCc1ccc(Nc2ccc(OC(F)(F)F)cc2)cc1 [Compound 198, 6-Chloro-2-ethyl-N-(4-(4-(trifluoromethoxy)phenylamino)benzyl)imidazo[1,2-a]pyridine-3-carboxamide] | 1 to 20 µM (≈ 0.489 to 9.78 µg/mL) | < 1 µM
31 | CCc1nc2ccc(Cl)cn2c1C(=O)NCc1ccc(-c2ccccc2Cl)cc1 [Compound 82, 6-Chloro-N-((2′-chlorobiphenyl-4-yl)methyl)-2-ethylimidazo[1,2-a]pyridine-3-carboxamide] | < 1 µM | < 1 µM
32 | CCc1nc2cc(Cl)ccn2c1C(=O)NCc1ccc(N2CC=CCC2)cc1 [Compound 213, 7-Chloro-N-(4-(5,6-dihydropyridin-1(2H)-yl)benzyl)-2-ethylimidazo[1,2-a]pyridine-3-carboxamide] | < 1 µM | 1 to 20 µM (≈ 0.395 to 7.9 µg/mL)
33 | CCc1nc2cc(Cl)ccn2c1C(=O)NCc1ccc(-c2ccc(OC)cn2)cc1 [Compound 135, 7-Chloro-2-ethyl-N-(4-(5-methoxypyridin-2-yl)benzyl)imidazo[1,2-a]pyridine-3-carboxamide] | 1 to 20 µM (≈ 0.421 to 8.42 µg/mL) | < 1 µM
34 | CCc1nc2ccc(Cl)cn2c1C(=O)NCc1ccc2[nH]c(-c3ccc(OC(F)(F)F)cc3)nc2c1 [Compound 204, 6-Chloro-2-ethyl-N-((2-(4-(trifluoromethoxy)phenyl)-1H-benzo[d]imidazol-5-yl)methyl) imidazo[1,2-a]pyridine-3-carboxamide] | > 20 µM | > 20 µM
35 | CCc1nc2ccc(Cl)cn2c1C(=O)NCc1ccc(-c2ccc(C)cc2)cc1 [Compound 86, 6-Chloro-2-ethyl-N-((4′-methylbiphenyl-4-yl)methyl)imidazo[1,2-a]pyridine-3-carboxamide] | < 1 µM | < 1 µM
36 | CCc1nc2ccc(Cl)cn2c1C(=O)NCc1ccc(N2CCN(Cc3ccc(F)cc3)CC2)cc1 [Compound 171, 6-Chloro-2-ethyl-N-(4-(4-(4-fluorobenzyl)piperazin-1-yl)benzyl)imidazo[1,2-a]pyridine-3-carboxamide] | < 1 µM | < 1 µM

Source: patent publication US8865734B2 (priority 2010, dated 2014)
